Target: T1, human AspH (His6-AspH315–758) (Homo sapiens, UniProt Q12797)
T1 construct: N-Terminally His6-tagged human AspH315–758 (His6-AspH315–758) was produced in Escherichia coli BL21 (DE3) cells; made in house; host or cells: Escherichia coli BL21 (DE3), pET-28a(+) vector
T1 sequence (Q12797 315-758): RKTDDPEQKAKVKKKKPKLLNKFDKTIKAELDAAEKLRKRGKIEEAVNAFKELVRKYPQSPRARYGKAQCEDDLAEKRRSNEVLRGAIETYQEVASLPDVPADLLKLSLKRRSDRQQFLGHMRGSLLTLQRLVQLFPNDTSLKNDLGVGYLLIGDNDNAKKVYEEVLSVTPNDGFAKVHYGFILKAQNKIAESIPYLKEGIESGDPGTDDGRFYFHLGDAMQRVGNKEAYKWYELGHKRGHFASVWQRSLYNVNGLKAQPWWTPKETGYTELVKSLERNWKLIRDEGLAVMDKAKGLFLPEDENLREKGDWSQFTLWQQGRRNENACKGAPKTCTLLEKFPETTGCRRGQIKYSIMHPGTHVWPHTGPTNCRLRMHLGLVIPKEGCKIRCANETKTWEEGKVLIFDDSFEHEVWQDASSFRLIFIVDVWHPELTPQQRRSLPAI
Test: SPE-MS AspH inhibition assay (hFX-CP101-119 substrate hydroxylation)
Type: biochemical
Details: AspH-inhibitor screening; for Plate 1 (% inhibition): 384-well Plate 1; for Plate 1 (% conversion): 384-well Plate 1, substrate conversion; for Plate 1-duplicate (% conversion): substrate conversion

Row | Compound | Plate 1 (% inhibition) | Plate 1 (% conversion) | Plate 1-duplicate (% inhibition) | Plate 1-duplicate (% conversion)
1 | O=C(O)CCCCC(CCSCc1ccccc1)SCc1ccccc1 (stereo not shown) [CPI-613] | -2.25% | 50.79% | -2.45% | 53.26%
2 | CC1(C)CCC(c2ccc(Cl)cc2)=C(CN2CCN(c3ccc(C(=O)NS(=O)(=O)c4ccc(N[C@H](CCN5CCOCC5)CSc5ccccc5)c(S(=O)(=O)C(F)(F)F)c4)cc3)CC2)C1 [ABT-263 (Navitoclax)] | 90.19% | 8.10% | 90.05% | 7.38%
3 | Cl.NC(=O)c1cccc2cn(-c3ccc([C@@H]4CCCNC4)cc3)nc12 [MK-4827, HCl salt] | 7.39% | 46.34% | 9.73% | 47.22%
4 | CN1CCN(c2ccc3nc(-c4c(N)c5c(F)cccc5[nH]c4=O)[nH]c3c2)CC1 [CHIR-258 (Dovitinib)] | -15.11% | 56.73% | -6.96% | 55.49%
5 | CC[C@H](Nc1ncnc2[nH]cnc12)c1nc2cccc(F)c2c(=O)n1-c1ccccc1 [Idelalisib] | 9.55% | 45.34% | 7.71% | 48.22%
6 | CCS(=O)(=O)c1cccc(-c2cc(C(=O)NC3CCN(C)CC3)c(C)c3[nH]c4ncc(C)cc4c23)c1 [TAK-901] | -15.73% | 57.02% | -23.07% | 63.48%
7 | S=c1[nH]cnc2nc[nH]c12 [Mercaptopurine] | 7.41% | 46.33% | 10.69% | 46.74%
8 | CO[C@H]1/C=C\C=C(/C)C(=O)NC2=CC(=O)C(NCCN(C)C)=C(C[C@@H](C)C[C@H](OC)[C@H](O)[C@@H](C)/C=C(\C)[C@@H]1OC(N)=O)C2=O [17-DMAG (Alvespimycin)] | -4.95% | 52.04% | -6.36% | 55.19%
9 | Cn1c(=O)c(F)c(Nc2ccc(I)cc2F)c2c(=O)n(C[C@@H](O)CO)cnc21 [TAK-733] | -22.47% | 60.13% | -22.24% | 63.07%
10 | CN(C)c1nc(N(C)C)nc(N(C)C)n1 [Altretamine] | 3.32% | 48.22% | 13.59% | 45.30%
11 | COc1cc2ncnc(Nc3ccc(F)c(Cl)c3)c2cc1OCCCN1CCOCC1 [Gefitinib] | -37.34% | 66.99% | -37.51% | 70.65%
12 | OC[C@H]1O[C@@H](n2cnc3c2NC=NC[C@H]3O)C[C@@H]1O [Pentostatin] | 10.69% | 44.81% | 8.07% | 48.04%
13 | C[C@]1(c2nc3c(C(N)=O)cccc3[nH]2)CCCN1 [ABT-888 (Veliparib)] | 6.01% | 46.97% | 4.15% | 49.98%
14 | CCc1cncnc1N1CCN(Cc2nc3ccc(C(F)(F)F)cc3[nH]2)CC1 [PF-04708671] | -5.43% | 52.26% | -7.38% | 55.70%
15 | CN[C@@H]1C[C@H]2O[C@@](C)([C@@H]1OC)n1c3ccccc3c3c4c(c5c6ccccc6n2c5c31)C(=O)N[C@H]4O [UCN-01] | 3.15% | 48.30% | -0.80% | 52.44%
16 | CC1(C)CNc2cc(NC(=O)c3cccnc3NCc3ccncc3)ccc21.O=P(O)(O)O.O=P(O)(O)O [Motesanib Diphosphate (AMG-706)] | 35.35% | 33.43% | 26.44% | 38.93%
17 | COc1ncc(-c2ccc3nccc(-c4ccnnc4)c3c2)cc1NS(=O)(=O)c1ccc(F)cc1F [GSK2126458] | 8.17% | 45.98% | 17.15% | 43.54%
18 | CC[C@@]1(O)C(=O)OCc2c1cc1n(c2=O)Cc2cc3ccccc3nc2-1 [Camptothecin] | 4.52% | 47.66% | 4.34% | 49.89%
19 | O=C(CCCCCCC(=O)Nc1ccccc1)NO [Vorinostat] | 3.50% | 48.13% | 7.67% | 48.24%
20 | COc1cc2nccc(Oc3ccc(NC(=O)C4(C(=O)Nc5ccc(F)cc5)CC4)cc3)c2cc1OC [XL184_Cabozantinib] | 11.20% | 44.58% | -8.84% | 56.43%
21 | CO[C@H]1C[C@@H]2CC[C@@H](C)[C@@](O)(O2)C(=O)C(=O)N2CCCC[C@H]2C(=O)O[C@H]([C@H](C)C[C@@H]2CC[C@@H](OCCO)[C@H](OC)C2)CC(=O)[C@H](C)/C=C(\C)[C@@H](O)[C@@H](OC)C(=O)[C@H](C)C[C@H](C)/C=C/C=C/C=C/1C [Everolimus] | -18.20% | 58.15% | -27.79% | 65.82%
22 | Oc1ccc2c(c1)CC[C@H](c1ccccc1)[C@@H]2c1ccc(OCCN2CCCC2)cc1 [Lasofoxifene] | 4.47% | 47.69% | -1.73% | 52.90%
